Assay type in all cases: cell-based
Experiment [1] has as its system Staphylococcus epidermidis (ATCC 12228). The experiment in a line: Determination of the bacteriostatic action, microbe count after incubation. Conditions: for Final microbe count: sample 2.0% in water/ethanol (12% of ethanol), mixed 1:1 with suspension, 35° C., 24 h or 48 h, initial count 1.6 × 10^4. How it is done: (§1) For sample preparation, substances I-1 and I-5 being investigated are homogeneously dispersed in an amount of 2.0% in a water/ethanol mixture (12% of ethanol) (=sample). A suspensions of Staphylococcus epidermidis (ATCC 12228) having an optical density of 1.0 in CASO broth (Merck 1.05459) is diluted 1:10000 with CASO broth. 500 μl of sample are added to […] of microorganism suspension, and the mixture is incubated at 35° C. for 24 h or 48 h. After the incubation, the test batches are diluted to −6 in 10 unit steps, and 0.1 ml of each is plated-out on CASO agar (Merck 1.05458) and incubated at 35° C. for 24 h.
(§2) In order to determine the initial microbe count, 0.1 ml of the bacteria suspension used are plated-out on CASO agar (Merck 1.05458) and incubated at 35° C. for 24 h.
(§3) The colonies are subsequently counted, and the microbe count per ml is determined compared with the negative control (12% of ethanol in water).
(§4) The concentrations indicated are the final use concentrations. In order to prepare the stock solution, double the final concentration are prepared in the solvent indicated. This is subsequently diluted 1:2 with the corresponding microbe suspension. In the case of Aspergillus brasiliensis, the microbe count determination is exceptionally carried out after 48 h, in the case of Malassezia furfur after 72 h.

Experiment [2] relates to Propionibacterium acnes (ATCC 6919). The experiment in a line: Microbe count after incubation, carried out in accordance with Example 1. Conditions: for Δlog: t24 h vs t0; for Final microbe count: as Example 1, sample 2.0% in water/ethanol (12% of ethanol), initial count 8.3 × 10^4. How it is done:
as §1, §2, §3
The experiment is carried out in accordance with Example 1. Instead of the action on Staphylococcus epidermidis, the action of substances I-1 and I-5 on the test microbe Propionibacterium acnes is investigated.
as §4

The test system of another experiment is Aspergillus brasiliensis. The experiment can be described thus: Microbe count after incubation (Example 3). Conditions: 1.0% final conc., H2O (12% of ethanol). How it is done: as §1, §2, §3, §4
The test system of the next experiment is Candida albicans. The experiment can be described thus: Microbe count after incubation (Example 3). Conditions: 1.0% final conc., H2O (12% of ethanol). As for the experimental part: as §1, §2, §3, §4
A further experiment deals with Corynebacterium xerosis. The experiment can be described thus: Microbe count after incubation (Example 3). Conditions: 0.5% final conc., H2O. How it is done: as §1, §2, §3, §4
The subject of another experiment is Malassezia furfur. The experiment can be described thus: Microbe count after incubation (Example 3). Conditions: 1.0% final conc., H2O. How it is done: as §1, §2, §3, §4
A further experiment has as its system Salmonella enterica. The experiment in a line: Microbe count after incubation (Example 3). Conditions: 0.5% final conc., H2O. How it is done:
as §1, §2, §3, §4

The next experiment relates to Staphylococcus aureus. The experiment can be described thus: Microbe count after incubation (Example 3). Conditions: 1.0% final conc., H2O (12% of ethanol). As for the experimental part:
as §1, §2, §3, §4

`OC1CCC(C(O)C2CCCCC2)CC1` (stereo not shown) [Substance I-1, 4-(cyclohexylhydroxymethyl)cyclohexanol]: the “Microbe count t24 h” value in experiment [1] (0.5% final conc., H2O (12% of ethanol), t0 1.6 × 10^4) was 7.4 × 10^3; in experiment [2] (0.25% final conc., H2O, t0 5.4 × 10^5), 2.4 × 10^5; in experiment [2] (0.5% final conc., H2O (12% of ethanol), t0 8.3 × 10^4), 0; with Aspergillus brasiliensis (count after 48 h, t0 8.0 × 10^2) it was 0; in the experiment on Candida albicans (t0 6.0 × 10^3) it was 0; in the experiment with Corynebacterium xerosis (t0 1.0 × 10^6), 1.3 × 10^6. Moreover, the “Microbe count t24 h” value in the experiment on Malassezia furfur (count after 72 h, t0 4.0 × 10^2) is reported as 0; in the experiment on Salmonella enterica (t0 1.0 × 10^6), 5.1 × 10^6; in the experiment on Staphylococcus aureus (t0 7.2 × 10^4) it was 0. Moreover, the Δlog in experiment [1] (0.5% final conc., H2O (12% of ethanol), t24 h vs t0) is listed as −0.34; in experiment [2] (0.25% final conc., H2O) it was −0.35; in experiment [2] (0.5% final conc., H2O (12% of ethanol)), −4.92; in the experiment on Aspergillus brasiliensis (count after 48 h vs t0), −2.90; in the experiment on Candida albicans (t24 h vs t0), −3.78; with Corynebacterium xerosis (t24 h vs t0) it was “+0.11”. Also, the Δlog in the experiment with Malassezia furfur (count after 72 h vs t0) was −2.60; in the experiment with Salmonella enterica (t24 h vs t0) it was “+0.71”; in the experiment with Staphylococcus aureus (t24 h vs t0) it was −4.86. For the same molecule, the results for the Final microbe count in experiment [1] and in experiment [2] were 7.4 × 10^3 CFU/ml and 0 CFU/ml, respectively.
For the molecule `COC1CCC(C(O)C2CCCCC2)C(O)C1` (stereo not shown) [Substance I-5, 2-(cyclohexylhydroxymethyl)-5-methoxy-cyclohexanol], the figures for the Final microbe count in experiment [1] and in experiment [2] were 7.0 × 10^3 CFU/ml and 0 CFU/ml, respectively.
